Assay results taken from patent US11911417B2, “Nerve growth promoter and method for producing same, internal preparation, medium additive, cell dilution additive, medium, cell dilution, antioxidant and method for producing same, external preparation, and wound treatment agent and method for producing same” (LAIMU CORPORATION, priority 2016, dated 2024).

Assay: radical trapping test (ABTS radical cations)
Details: 20 μM, 5 to 120 minutes, FIG. 5
Procedure: The antioxidant 1 (freeze-dried powder of protease degradation product) produced was evaluated for the radical trapping activity against ABTS radical cations (unnatural model radical), according to the spectrophotometric method described in Biol. Pharm. Bull., 29, 766-771 (2006). Specifically, the antioxidant 1 was added to 3 mL of a reaction solution containing ABTS radical cations to be a final concentration of 300 μg/mL, and at the time after 5 minutes, 15 minutes, 30 minutes, 60 minutes and 120 minutes, the residual ratio of the ABTS radical cations was determined. For comparison, a system added with ascorbic acid or arbutin in an amount of 20 μM each in place of the antioxidant 1, and a system added with water in the same amount as that of the antioxidant 1 (control) were tested in the same manner.

Compound | course of the radical residual ratio with the lapse of time
OC[C@H]1O[C@@H](Oc2ccc(O)cc2)[C@H](O)[C@@H](O)[C@@H]1O [arbutin] | did not change after further lapse of time
O=C1O[C@H]([C@@H](O)CO)C(O)=C1O [ascorbic acid] | did not change after further lapse of time
